Calls of active or inactive are those of the source. The rule behind the calls is not given here.
Key:
[1] = target: T1, Transient receptor potential cation channel subfamily V member 1 (Rattus norvegicus, UniProt O35433); experiment: Displacement of [3H]RTX from rat TRPV1 expressed in CHO cells; assay type: cell-based
[2] = target: Transient receptor potential cation channel subfamily V member 1 (Rattus norvegicus) (UniProt O35433); experiment: Agonist activity at rat TRPV1 expressed in CHO cells assessed as induction of 45Ca2+ uptake at 30 uM relative to capsaicin; assay type: functional, cell-based
[3] = target: T1, Transient receptor potential cation channel subfamily V member 1; experiment: Antagonist activity at rat TRPV1 expressed in CHO cells assessed as inhibition of 45Ca2+ uptake; assay type: functional, cell-based
[4] = target: Transient receptor potential cation channel subfamily V member 1 (Rattus norvegicus) (UniProt O35433); experiment: Antagonist activity at rat TRPV1 expressed in CHO cells assessed as inhibition of 45Ca2+ uptake relative to control; assay type: functional, cell-based; set-up: scale not given: the % may be the effect or the level left

Chain of Transient receptor potential cation channel subfamily V member 1 (Rattus norvegicus) (O35433 whole entry): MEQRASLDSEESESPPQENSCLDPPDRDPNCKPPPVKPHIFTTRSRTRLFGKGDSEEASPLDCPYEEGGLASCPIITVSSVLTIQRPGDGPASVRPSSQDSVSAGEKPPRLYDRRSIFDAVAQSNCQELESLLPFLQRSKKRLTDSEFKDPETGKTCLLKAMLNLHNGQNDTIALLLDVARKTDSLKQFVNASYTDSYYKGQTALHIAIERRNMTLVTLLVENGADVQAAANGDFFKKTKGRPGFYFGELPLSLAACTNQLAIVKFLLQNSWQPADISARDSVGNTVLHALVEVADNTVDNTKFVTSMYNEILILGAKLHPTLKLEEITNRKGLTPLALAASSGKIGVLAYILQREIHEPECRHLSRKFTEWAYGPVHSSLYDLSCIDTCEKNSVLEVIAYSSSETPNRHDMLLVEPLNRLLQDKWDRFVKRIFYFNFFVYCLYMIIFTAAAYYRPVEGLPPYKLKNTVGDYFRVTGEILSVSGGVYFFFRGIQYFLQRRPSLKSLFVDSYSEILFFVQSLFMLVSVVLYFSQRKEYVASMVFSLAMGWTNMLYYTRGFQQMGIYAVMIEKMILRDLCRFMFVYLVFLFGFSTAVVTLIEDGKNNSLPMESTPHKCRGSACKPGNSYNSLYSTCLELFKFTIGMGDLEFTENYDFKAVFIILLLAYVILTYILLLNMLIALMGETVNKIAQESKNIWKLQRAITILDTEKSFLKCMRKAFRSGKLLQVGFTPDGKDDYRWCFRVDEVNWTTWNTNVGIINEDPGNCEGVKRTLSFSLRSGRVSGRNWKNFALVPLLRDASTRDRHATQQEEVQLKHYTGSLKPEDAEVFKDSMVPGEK
T1 sequence (O35433 whole entry): as above

SMILES | Ki [1] | Activity [2] | Ki [3] | Activity [4]
Cc1ccc(CCC(COC(=O)C(C)(C)C)NC(=S)NCc2ccc(NS(C)(=O)=O)cc2)cc1C (stereo unspecified) | 390 nM | 5% | 33.7 nM | 
CC(C)(C)C(=O)OCC(NC(=S)NCc1ccc(NS(C)(=O)=O)cc1)c1ccc(C(C)(C)C)cc1 (stereo unspecified) | 197 nM | 46% | 940 nM | 46%
Cc1ccc(CC(CNC(=S)NCc2ccc(NS(C)(=O)=O)c(F)c2)COC(=O)C(C)(C)C)cc1C (stereo unspecified) |  | inactive |  | 
Cc1ccc(CC(CN/C(S)=N/Cc2ccc(NS(C)(=O)=O)cc2)COC(=O)C(C)(C)C)cc1C (stereo unspecified) |  | 15% |  | 
CC(C)(C)C(=O)OCC(C/N=C(\S)NCc1ccc(NS(C)(=O)=O)cc1)Cc1ccc(C(C)(C)C)cc1 (stereo unspecified) |  | 40% |  | 
CC(C)(C)C(=O)OCC(CNC(=S)NCc1ccc(NS(C)(=O)=O)cc1)c1ccc(C(C)(C)C)cc1 (stereo unspecified) | 143 nM | inactive | 91 nM | 

Continued, values first:

Ki [1] | Activity [2] | Ki [3] | Activity [4] | SMILES
120 nM | inactive | 111 nM |  | Cc1ccc(CCC(COC(=O)C(C)(C)C)NC(=S)NCc2ccc(NS(C)(=O)=O)c(F)c2)cc1C (stereo unspecified)
580 nM | 19% |  | 48% | Cc1ccc(CC(COC(=O)C(C)(C)C)NC(=S)NCc2ccc(NS(C)(=O)=O)cc2)cc1C (stereo unspecified)
416 nM | 8% |  | 31% | CC(C)(C)C(=O)OCC(Cc1ccc(C(C)(C)C)cc1)NC(=S)NCc1ccc(NS(C)(=O)=O)cc1 (stereo unspecified)
366 nM | inactive | 286 nM |  | CC(C)(C)C(=O)OCC(CCc1ccc(C(C)(C)C)cc1)NC(=S)NCc1ccc(NS(C)(=O)=O)cc1 (stereo unspecified)
115 nM | inactive | 179 nM |  | CC(C)(C)C(=O)OCC(Cc1ccc(C(C)(C)C)cc1)NC(=S)NCc1ccc(NS(C)(=O)=O)c(F)c1 (stereo unspecified)
190 nM | inactive | 152 nM |  | CC(C)(C)C(=O)OCC(CCc1ccc(C(C)(C)C)cc1)NC(=S)NCc1ccc(NS(C)(=O)=O)c(F)c1 (stereo unspecified)
233 nM | inactive | 650 nM |  | Cc1ccc(CC(COC(=O)C(C)(C)C)NC(=S)NCc2ccc(NS(C)(=O)=O)c(F)c2)cc1C (stereo unspecified)
244 nM | 35% | 213 nM | 72% | CC(C)(C)C(=O)OCC(NC(=S)NCc1ccc(NS(C)(=O)=O)c(F)c1)c1ccc(C(C)(C)C)cc1 (stereo unspecified)
69 nM | inactive | 116 nM |  | CC(C)(C)C(=O)OCC(CNC(=S)NCc1ccc(NS(C)(=O)=O)c(F)c1)c1ccc(C(C)(C)C)cc1 (stereo unspecified)
